In US7732450B2, “Antifungal ketoconazole composition for topical use” (Boult Wade Tennant, priority 2000, dated 2010):

Test: Solubility of ketoconazole in solvent media at room temperature
Format: physicochemical
Settings: for Solubility: room temperature (21° C.)
Protocol: The solubility of ketoconazole in each of isopropyl alcohol, water and polyethoxylated glyceryl cocoate were established at room temperature (21° C.).
The solubility of ketoconazole in a composition of the present invention, prepared as in Example 1, containing 55% isopropyl alcohol, 35% water and 10% polyethoxylated glyceryl cocoate was also established at room temperature (21° C.).

## CC(=O)N1CCN(c2ccc(OCC3COC(Cn4ccnc4)(c4ccc(Cl)cc4Cl)O3)cc2)CC1 (centres unmarked) [ketoconazole, 1-acetyl-4-[4-[2-(2,4-dichlorophenyl)-2-imidazol-1-ylmethyl-1,3-dioxolan-4-ylmethoxy]phenyl]piperazine]
In composition of 55% isopropyl alcohol, 35% water and 10% polyethoxylated glyceryl cocoate
  Solubility: 2.8 wt %
In isopropyl alcohol
  Solubility: 0.4722 wt %
In polyethoxylated glyceryl cocoate
  Solubility: 0.8682 wt %
In water
  Solubility: 0.0233 wt %
Ternary solvent system (water, alcohol, non-ionic surface active agent)
  Solubility of ketoconazole in three-component solvent system: up to 3 wt %
